US11311538B2, “Compositions and methods for targeting cancers” (YALE UNIVERSITY, priority 2018, dated 2022)

Legend:
[1] = system: HEK293FT shSDHB / shFH / shCTRL cells; test: Clonogenic survival assay, DNA damaging agents, SDHB or FH knockdown cells; assay type: cell-based, human; settings: SDHB or FH knockdown cells compared to control shRNA
Protocol: (§1) Western Blot analyses. Western blot analysis of protein levels was conducted by loading 30 μg of whole cell lysate onto a 4-20% polyacrylamide gel. Total protein was transferred to a nitrocellulose membrane. After blocking with 5% milk, membranes were incubated with primary antibodies. Antibodies used were: Rabbit monoclonal anti-Fumarase (D9C5,Cell Signaling Technologies) 1:1000 in 5% BSA, mouse monoclonal anti-SDHB (21A11AE7, Abcam) 1:1000 in % 5 milk, mouse monoclonal anti-Vinculin (SPM227, Abcam) 1:1000 in 5% milk, rabbit polyclonal anti-Histone 3 Lysine 36 trimethyl (9050, Abcam) 1:500 in 5% BSA, anti-Histone 3 Lysine 9 trimethyl (D4W1U, Cell Signaling Technologies) 1:1000 in 5% BSA, mouse monoclonal anti-Beta Actin (60008, Protein Tech) 1:5000 5% milk, rabbit Polyclonal anti-Histone H3 (ab1791, Abcam 1:5000 5% BSA), rabbit Polyclonal anti-PAR (4336-BPC-100, Trevigen) 1:5000 5% BSA, mouse monoclonal anti-GAPDH (60004 Protein Tech) 1:5000 5% milk, mouse monoclonal anti-BRCA2 (ab1, Millipore, 1:1000 5% Milk), mouse monoclonal anti-BRCA1 (D-9, Santa Cruz, 1:200 5% milk), mouse monoclonal anti-RAD51(14B4 Novus bio, 1:1000 5% milk). Patient sample blots were reprobed. […] Doxycycline induced knockdown was monitored by western blot as well as by RFP fluorescence from the internal and dox-inducible reporter on the TRIPZ construct. […]

[2] = system: U2OS DR-GFP cells; test: U2OS DR-GFP HR assay; assay type: cell-based; settings: for suppression of HR, DR-GFP assay: metabolite added to cell culture medium, 24 h (FIG. 3A)
[3] = system: UOK 262; test: Neutral comet assay in UOK 262 HLRCC cells; assay type: cell-based, human; settings: for levels of DNA DSBs after exogenous metabolite: FH-deficient UOK 262 cells, 24 h (FIG. 3H)
[4] = system: UOK 268; test: Neutral comet assay in UOK 268 HLRCC cells; assay type: cell-based, human; settings: for levels of DNA DSBs after exogenous metabolite: FH-deficient UOK 268 cells, 24 h (FIG. 3H)
[5] = system: KDM4A and KDM4B; test: Western blot of histone trimethylation (KDM4A/B activity) in YUNK1 cells; assay type: cell-based, human; settings: increasing doses, 24 h (FIGS. 7E-7F)
Protocol: Western Blot analyses. Western blot analysis of protein levels was conducted by loading 30 μg of whole cell lysate onto a 4-20% polyacrylamide gel. Total protein was transferred to a nitrocellulose membrane. After blocking with 5% milk, membranes were incubated with primary antibodies. Antibodies used were: Rabbit monoclonal anti-Fumarase (D9C5,Cell Signaling Technologies) 1:1000 in 5% BSA, mouse monoclonal anti-SDHB (21A11AE7, Abcam) 1:1000 in % 5 milk, mouse monoclonal anti-Vinculin (SPM227, Abcam) 1:1000 in 5% milk, rabbit polyclonal anti-Histone 3 Lysine 36 trimethyl (9050, Abcam) 1:500 in 5% BSA, anti-Histone 3 Lysine 9 trimethyl (D4W1U, Cell Signaling Technologies) 1:1000 in 5% BSA, mouse monoclonal anti-Beta Actin (60008, Protein Tech) 1:5000 5% milk, rabbit Polyclonal anti-Histone H3 (ab1791, Abcam 1:5000 5% BSA), rabbit Polyclonal anti-PAR (4336-BPC-100, Trevigen) 1:5000 5% BSA, mouse monoclonal anti-GAPDH (60004 Protein Tech) 1:5000 5% milk, mouse monoclonal anti-BRCA2 (ab1, Millipore, 1:1000 5% Milk), mouse monoclonal anti-BRCA1 (D-9, Santa Cruz, 1:200 5% milk), mouse monoclonal anti-RAD51(14B4 Novus bio, 1:1000 5% milk). Patient sample blots were reprobed. Reprobed blots were stripped with Restore Plus Stripping Buffer (Thermo Fischer) and re-blocked with 5% milk prior to reprobing. Blots were tested to ensure all residual detection reagents were removed. Dual Color Precision Plus Protein standard was used as a molecular weight standard for western blots. Cell Culture. YUNK1 cells were generated in culture from uninvolved cortical renal tissue from a patient undergoing a radical nephrectomy for kidney cancer. […] YUNK1 was immortalized with a lentiviral vector containing SV40 Large T antigen (Addgene plasmid #22298). Lentiviral production was performed using HEK293FT (ATCC) using plasmids pMDLg/pRRE, pRSV-Rev, pCMV-VSG-G (Addgene #12251, 12253, and 8454). YUNK1 cells were maintained in DMEM+10% FBS+1% Pen/Strep. HEK293FT cells (ATCC) were maintained in DMEM+10% FBS+1% Pen/Strep. After lentiviral infections with TRIPZ-shRNA or GIPZ lentiviruses, cells were maintained in DMEM+10% FBS+1% Pen/Strep+2 μg/mL Puromycin. For dox inducible shRNAs, expression was induced with 2 μg/mL doxycycline. Doxycycline induced knockdown was monitored by western blot as well as by RFP fluorescence from the internal and dox-inducible reporter on the TRIPZ construct. U2OS DR-GFP cells were maintained in DMEM+10% FBS+1% Pen/Strep. UOK 262 and UOK 268 HLRCC cells are previously described in Yang, et al., 2010, Cancer Gent. Cytogent. 196:45-55; Yang, et al., 205, Cancer Genet. 205:377-390. They were obtained courtesy of W. M. Linehan and were maintained in DMEM+10% FBS+1% Pen/Strep+1 mM Sodium-Pyruvate. NCCFH1 cells were maintained in DMEM+10% FBS+1% Pen/Strep+1 mM Sodium-Pyruvate. […]

[6] = system: UOK 262; test: Clonogenic survival assay in cell lines of renal origin; assay type: cell-based, human; settings: FIG. 4C (BMN-673), FIG. 8J (mitomycin C)
[7] = system: HEK293FT and YUNK1 cells; test: Clonogenic survival assay, PARP inhibitors, knockdown or metabolite-treated cells; assay type: cell-based, human
[8] = system: HEK293FT cells; test: Immunofluorescence foci assay in HEK293FT cells; assay type: cell-based, human; settings: metabolite added to culture media (FIGS. 3E-3G)
Protocol: as §1

[9] = system: YUNK1 cells; test: Immunofluorescence foci assay in YUNK1 cells; assay type: cell-based, human
Protocol: as §1

## N.N.[Cl][Pt][Cl] [cisplatin]
[1]
  clonogenic survival in response to DNA damaging agent: substantially reduced survival

## COC(=O)CCC(=O)OC [dimethyl-succinate]
[2]
  suppression of HR, DR-GFP assay: sufficient to suppress HR in a dose-dependent manner

## O=C(O)/C=C/C(=O)O [fumarate]
[3]
  levels of DNA DSBs after exogenous metabolite: no further effect
[4]
  levels of DNA DSBs after exogenous metabolite: no further effect
[5]
  H3K9me3 levels: dose-dependent increase
  H3L36me3 levels: dose-dependent increase

## CO[C@@]12[C@H](COC(N)=O)C3=C(C(=O)C(C)=C(N)C3=O)N1C[C@@H]1N[C@@H]12 [mitomycin C]
[1]
  clonogenic survival in response to DNA damaging agent: substantially reduced survival
[6]
  sensitivity of UOK 262 relative to FH-proficient cell lines of renal origin, clonogenic survival: markedly more sensitive

## CCOC(=O)/C=C/C(=O)O [monoethyl-fumarate]
[2]
  suppression of HR, DR-GFP assay: sufficient to suppress HR in a dose-dependent manner

## CCOC(=O)CCC(=O)O [monoethyl-succinate]
[2]
  suppression of HR, DR-GFP assay: sufficient to suppress HR in a dose-dependent manner

## O=C(c1cc(Cc2n[nH]c(=O)c3ccccc23)ccc1F)N1CCN(C(=O)C2CC2)CC1 [olaparib]
[7]; knockdown of SDHB and FH or exogenous dimethyl-fumarate or succinate (FIGS. 4A-4B, 8E-8I)
  sensitivity to the PARP inhibitor, clonogenic survival: dramatic sensitivity

## O=C(O)CCC(=O)O [succinate]
[2]
  suppression of HR, DR-GFP assay: sufficient to suppress HR in a dose-dependent manner
[8]
  p53BP1 foci: Increases
  γH2AX foci: Increases
[9]; 24 h (FIGS. 6I-6J)
  γH2AX foci: Increases
[9]; 24 h (FIGS. 6K-6L)
  p53BP1 foci: Increases
[3]
  levels of DNA DSBs after exogenous metabolite: no further effect
[4]
  levels of DNA DSBs after exogenous metabolite: no further effect
[5]
  H3K9me3 levels: dose-dependent increase
  H3L36me3 levels: dose-dependent increase
[7]; metabolite added to culture media (2 mM succinate; 30 or 60 μM dimethyl-fumarate)
  induction of sensitivity to PARP inhibitors olaparib and BMN-673 by exogenous metabolite: induced dramatic sensitivity

## COC(=O)CCC(=O)C(=O)OC [αKG, dimethyl-α-ketoglutarate]
[2]; co-treatment with dimethyl-succinate or dimethyl-fumarate (FIG. 3L)
  rescue of HR defect induced by succinate or fumarate, DR-GFP assay: rescued
[3]; FH deficient UOK 262 cells, 2 mM dimethyl-α-ketoglutarate (FIG. 3J)
  rescue of elevated DSB phenotype (comet assay): rescued the phenotype
[4]; FH deficient UOK 268 cells, 2 mM dimethyl-α-ketoglutarate (FIG. 3J)
  rescue of elevated DSB phenotype (comet assay): rescued the phenotype
